Source: ChEMBL document CHEMBL6096658, “Discovery of Potent, Highly Selective, and Efficacious SMARCA2 Degraders” (J Med Chem, 2025)
Active and inactive are the calls of the source. The calls are words filed in the database; no cut-off is given here.

Columns and labels:
[1] = target: von Hippel-Lindau disease tumor suppressor (Homo sapiens, UniProt P40337); assay: Binding affinity to VHL (unknown origin) incubated for 30 mins by HTRF assay
[2] = target: T1, von Hippel-Lindau disease tumor suppressor/SWI/SNF-related matrix-associated actin-dependent regulator of chromatin subfamily A member 2 (Homo sapiens, UniProt P51531+P40337); assay: PROTAC activity at VHL/SMARCA2 in human HT-1080 cells assessed as induction of SMARCA2 degradation incubated for 24 hrs by Nano-Glo HiBiT Lytic Detection Assay; format: cell-based
Target sequence in this assay (P51531 whole entry): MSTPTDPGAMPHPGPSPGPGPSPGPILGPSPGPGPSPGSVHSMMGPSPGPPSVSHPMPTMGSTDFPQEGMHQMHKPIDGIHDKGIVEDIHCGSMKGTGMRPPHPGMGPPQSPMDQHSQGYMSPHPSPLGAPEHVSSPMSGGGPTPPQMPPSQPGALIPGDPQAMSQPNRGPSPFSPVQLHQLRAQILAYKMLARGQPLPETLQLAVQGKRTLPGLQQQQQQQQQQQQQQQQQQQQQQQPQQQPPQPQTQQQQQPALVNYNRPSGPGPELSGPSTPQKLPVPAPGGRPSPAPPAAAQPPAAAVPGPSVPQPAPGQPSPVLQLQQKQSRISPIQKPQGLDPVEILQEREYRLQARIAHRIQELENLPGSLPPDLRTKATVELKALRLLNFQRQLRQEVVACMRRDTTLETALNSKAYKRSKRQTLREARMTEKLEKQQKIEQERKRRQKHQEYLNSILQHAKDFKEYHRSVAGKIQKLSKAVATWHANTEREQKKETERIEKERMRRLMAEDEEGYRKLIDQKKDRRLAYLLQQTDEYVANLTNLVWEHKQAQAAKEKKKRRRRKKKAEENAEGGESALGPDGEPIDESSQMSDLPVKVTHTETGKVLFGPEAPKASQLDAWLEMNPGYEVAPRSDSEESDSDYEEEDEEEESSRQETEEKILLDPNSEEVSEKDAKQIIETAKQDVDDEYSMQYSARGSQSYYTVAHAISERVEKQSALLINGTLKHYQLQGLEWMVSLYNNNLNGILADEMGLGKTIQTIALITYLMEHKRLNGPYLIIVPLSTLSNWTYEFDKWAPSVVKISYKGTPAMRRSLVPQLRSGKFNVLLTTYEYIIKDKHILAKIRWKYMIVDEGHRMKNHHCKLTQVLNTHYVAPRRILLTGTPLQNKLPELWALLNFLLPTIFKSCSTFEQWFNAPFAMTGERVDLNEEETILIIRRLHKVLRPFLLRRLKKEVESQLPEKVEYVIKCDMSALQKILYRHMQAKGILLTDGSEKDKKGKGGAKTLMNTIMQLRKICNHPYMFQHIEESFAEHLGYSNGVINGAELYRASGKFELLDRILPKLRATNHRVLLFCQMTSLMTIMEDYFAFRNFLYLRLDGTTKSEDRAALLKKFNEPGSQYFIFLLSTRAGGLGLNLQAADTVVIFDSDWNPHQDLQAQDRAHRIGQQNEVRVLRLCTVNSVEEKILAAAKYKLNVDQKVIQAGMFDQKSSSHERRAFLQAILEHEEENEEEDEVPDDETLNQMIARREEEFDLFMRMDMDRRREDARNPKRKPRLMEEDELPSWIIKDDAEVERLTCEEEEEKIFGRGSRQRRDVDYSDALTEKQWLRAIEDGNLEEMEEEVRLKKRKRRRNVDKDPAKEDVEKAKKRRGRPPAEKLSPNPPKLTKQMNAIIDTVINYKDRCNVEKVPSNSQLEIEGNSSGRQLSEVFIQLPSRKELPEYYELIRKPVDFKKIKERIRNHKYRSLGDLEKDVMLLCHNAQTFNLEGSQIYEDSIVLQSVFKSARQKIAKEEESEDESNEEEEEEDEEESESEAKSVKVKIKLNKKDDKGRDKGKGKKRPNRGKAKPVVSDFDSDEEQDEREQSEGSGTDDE
Target sequence in this assay (P40337 whole entry): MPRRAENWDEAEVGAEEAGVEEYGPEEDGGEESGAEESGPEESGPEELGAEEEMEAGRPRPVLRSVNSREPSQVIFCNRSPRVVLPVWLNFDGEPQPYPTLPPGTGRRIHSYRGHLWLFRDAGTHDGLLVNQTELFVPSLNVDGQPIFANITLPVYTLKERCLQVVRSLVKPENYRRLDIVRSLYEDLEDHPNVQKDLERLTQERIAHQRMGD

[3] = target: T1, von Hippel-Lindau disease tumor suppressor/SWI/SNF-related matrix-associated actin-dependent regulator of chromatin subfamily A member 2; assay: PROTAC activity at VHL/SMARCA2 in human HT-1080 cells assessed as induction of SMARCA2 degradation by measuring maximum efficacy incubated for 6 hrs by Nano-Glo HiBiT Lytic Detection Assay relative to control; format: cell-based
[4] = target: T2, von Hippel-Lindau disease tumor suppressor/SWI/SNF-related matrix-associated actin-dependent regulator of chromatin subfamily A member 4 (Homo sapiens, UniProt P51532+P40337); assay: PROTAC activity at VHL/SMARCA4 in human HT-1080 cells assessed as induction of SMARCA4 degradation incubated for 24 hrs by Nano-Glo HiBiT Lytic Detection Assay; format: cell-based
Target sequence in this assay (P51532 whole entry): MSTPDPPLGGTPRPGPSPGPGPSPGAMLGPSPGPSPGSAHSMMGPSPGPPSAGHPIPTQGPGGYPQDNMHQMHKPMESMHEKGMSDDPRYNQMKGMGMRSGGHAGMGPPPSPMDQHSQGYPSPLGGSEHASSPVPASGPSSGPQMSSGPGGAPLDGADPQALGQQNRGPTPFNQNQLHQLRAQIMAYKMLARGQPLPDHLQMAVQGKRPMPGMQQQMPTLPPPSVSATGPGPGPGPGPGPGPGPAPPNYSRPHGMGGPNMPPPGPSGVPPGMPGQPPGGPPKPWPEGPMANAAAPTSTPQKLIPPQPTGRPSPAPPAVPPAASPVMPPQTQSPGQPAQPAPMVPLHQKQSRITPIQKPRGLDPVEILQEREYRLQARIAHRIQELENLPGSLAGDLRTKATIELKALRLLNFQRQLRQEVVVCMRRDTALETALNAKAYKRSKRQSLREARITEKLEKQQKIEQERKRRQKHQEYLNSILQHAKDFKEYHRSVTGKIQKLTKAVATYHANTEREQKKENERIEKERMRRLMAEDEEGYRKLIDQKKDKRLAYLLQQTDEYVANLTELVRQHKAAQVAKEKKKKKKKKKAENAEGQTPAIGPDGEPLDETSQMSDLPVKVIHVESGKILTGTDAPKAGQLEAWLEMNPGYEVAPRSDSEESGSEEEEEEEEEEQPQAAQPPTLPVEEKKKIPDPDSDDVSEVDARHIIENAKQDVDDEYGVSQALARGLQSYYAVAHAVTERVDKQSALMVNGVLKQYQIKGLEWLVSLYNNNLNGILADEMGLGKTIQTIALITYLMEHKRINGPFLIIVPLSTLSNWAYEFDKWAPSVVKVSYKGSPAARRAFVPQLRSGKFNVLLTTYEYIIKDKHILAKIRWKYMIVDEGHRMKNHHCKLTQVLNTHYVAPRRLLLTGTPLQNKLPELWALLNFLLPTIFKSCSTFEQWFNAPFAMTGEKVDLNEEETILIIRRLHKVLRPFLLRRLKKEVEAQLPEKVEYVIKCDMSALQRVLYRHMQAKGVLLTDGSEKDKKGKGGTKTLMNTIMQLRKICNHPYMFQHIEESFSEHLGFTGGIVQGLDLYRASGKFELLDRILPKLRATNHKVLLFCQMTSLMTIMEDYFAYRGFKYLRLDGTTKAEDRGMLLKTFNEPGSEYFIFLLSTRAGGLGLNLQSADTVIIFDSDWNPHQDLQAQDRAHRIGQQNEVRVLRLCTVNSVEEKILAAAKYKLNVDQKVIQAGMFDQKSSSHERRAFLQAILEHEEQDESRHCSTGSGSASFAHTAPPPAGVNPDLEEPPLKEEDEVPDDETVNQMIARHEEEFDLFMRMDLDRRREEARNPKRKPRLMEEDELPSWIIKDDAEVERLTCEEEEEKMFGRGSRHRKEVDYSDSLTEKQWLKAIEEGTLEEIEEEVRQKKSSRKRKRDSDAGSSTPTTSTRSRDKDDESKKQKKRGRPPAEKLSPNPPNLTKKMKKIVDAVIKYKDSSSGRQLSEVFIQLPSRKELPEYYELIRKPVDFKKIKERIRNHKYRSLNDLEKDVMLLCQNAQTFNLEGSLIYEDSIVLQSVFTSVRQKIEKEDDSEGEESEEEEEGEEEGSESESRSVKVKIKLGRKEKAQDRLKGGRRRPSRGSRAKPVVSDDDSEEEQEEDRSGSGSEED
Target sequence in this assay (P40337 whole entry): as the sequence (P40337 whole entry) above

[5] = target: T2, von Hippel-Lindau disease tumor suppressor/SWI/SNF-related matrix-associated actin-dependent regulator of chromatin subfamily A member 4; assay: PROTAC activity at VHL/SMARCA4 in human HT-1080 cells assessed as induction of SMARCA4 degradation by measuring maximum efficacy incubated for 6 hrs by Nano-Glo HiBiT Lytic Detection Assay relative to control; format: cell-based
[6] = Selectivity ratio of DC50 for PROTAC activity at VHL/SMARCA4 in human HT-1080 cells (unknown origin) to DC50 for VHL/SMARCA2 in human HT-1080 cells (unknown origin); format: cell-based
[7] = test system: NCI-H838; assay: Antiproliferative activity against human NCI-H838 cells assessed as cell growth inhibition incubated for 6 days by Cell Titer Glo assay; format: functional; conditions: NCI-H838, 144 h, time 6 day
[8] = test system: Calu-6; assay: Antiproliferative activity against human Calu-6 cells assessed as cell growth inhibition incubated for 6 days by Cell Titer Glo assay; format: functional; conditions: Calu-6, 144 h, time 6 day
[9] = Metabolic stability in female BALB/c mouse microsomes assessed as half life administered intravenously; format: ADME; conditions: route iv
[10] = Metabolic stability in female BALB/c mouse microsomes assessed as hepatic extraction ratio administered intravenously; format: ADME; conditions: route iv, read-out: ERH
[11] = target: T1, von Hippel-Lindau disease tumor suppressor/SWI/SNF-related matrix-associated actin-dependent regulator of chromatin subfamily A member 2; assay: In vivo PROTAC activity at VHL/ SMARCA2 in female BALB/c mouse xenografted with human HT-1080 cells assessed as reduction in SMARCA2 level in tumor at 1 mg/kg, iv measured after 24 hrs relative to control; format: functional, organism-based; parameters: scale not given: the % may be the effect or the level left
[12] = target: T1, von Hippel-Lindau disease tumor suppressor/SWI/SNF-related matrix-associated actin-dependent regulator of chromatin subfamily A member 2; assay: PROTAC activity at VHL/SMARCA2 in human HT-1080 cells assessed as induction of SMARCA2 degradation measured after 6 hrs by Nano-Glo HiBiT Lytic Detection Assay; format: cell-based; conditions: dose 0.02-1000 nM
[13] = target: T1, von Hippel-Lindau disease tumor suppressor/SWI/SNF-related matrix-associated actin-dependent regulator of chromatin subfamily A member 2; assay: PROTAC activity at VHL/SMARCA2 in human HT-1080 cells assessed as induction of SMARCA2 degradation at 0.02 to 1000 nM by Nano-Glo HiBiT Lytic Detection Assay; format: cell-based; conditions: dose 0.02-1000 nM, time 6-24 hrs
[14] = target: T1, von Hippel-Lindau disease tumor suppressor/SWI/SNF-related matrix-associated actin-dependent regulator of chromatin subfamily A member 2; assay: PROTAC activity at VHL/SMARCA2 in human HT-1080 cells assessed as induction of SMARCA2 degradation pretreated with MG132 followed by compound addition and measured after 6 hrs by Nano-Glo HiBiT Lytic Detection Assay; format: cell-based
[15] = target: T1, von Hippel-Lindau disease tumor suppressor/SWI/SNF-related matrix-associated actin-dependent regulator of chromatin subfamily A member 2; assay: PROTAC activity at VHL/SMARCA2 in human HT-1080 cells assessed as induction of SMARCA2 degradation pretreated with MLN4924 followed by compound addition and measured after 6 hrs by Nano-Glo HiBiT Lytic Detection Assay; format: cell-based
[16] = test system: NCI-H838; assay: Antiproliferative activity against human NCI-H838 cells assessed as inhibition of cell proliferation incubated for 6 days by Cell Titer Glo assay; format: functional, cell-based; conditions: time 6.0 day
[17] = test system: NCI-H1573; assay: Antiproliferative activity against human NCI-H1573 cells assessed as inhibition of cell proliferation incubated for 6 days by Cell Titer Glo assay; format: functional, cell-based; conditions: time 6.0 day
[18] = test system: NCI-H1568; assay: Antiproliferative activity against human NCI-H1568 cells assessed as inhibition of cell proliferation incubated for 6 days by Cell Titer Glo assay; format: functional, cell-based; conditions: time 6.0 day
[19] = test system: Calu-6; assay: Antiproliferative activity against wild type human Calu-6 cells assessed as inhibition of cell proliferation incubated for 6 days by Cell Titer Glo assay; format: functional, cell-based; conditions: time 6.0 day
[20] = test system: HT-1080; assay: Antiproliferative activity against wild type human HT-1080 cells assessed as inhibition of cell proliferation incubated for 6 days by Cell Titer Glo assay; format: functional, cell-based; conditions: time 6.0 day
[21] = test system: NCI-H1373; assay: Antiproliferative activity against wild type human NCI-H1373 cells assessed as inhibition of cell proliferation incubated for 6 days by Cell Titer Glo assay; format: functional, cell-based; conditions: time 6.0 day
[22] = target: T1, von Hippel-Lindau disease tumor suppressor/SWI/SNF-related matrix-associated actin-dependent regulator of chromatin subfamily A member 2; assay: In vivo PROTAC activity at VHL/ SMARCA2 in female BALB/c mouse xenografted with human HT-1080 cells assessed as reduction in SMARCA2 level in tumor at 10 mg/kg, iv measured after 24 hrs relative to control; format: functional, organism-based; parameters: scale not given: the % may be the effect or the level left
[23] = target: T2, von Hippel-Lindau disease tumor suppressor/SWI/SNF-related matrix-associated actin-dependent regulator of chromatin subfamily A member 4; assay: In vivo PROTAC activity at VHL/ SMARCA4 in female BALB/c mouse xenografted with human HT-1080 cells assessed as increase in SMARCA4 level administered intravenously and measured after 24 hrs; format: functional, organism-based; conditions: route iv
[24] = target: T2, von Hippel-Lindau disease tumor suppressor/SWI/SNF-related matrix-associated actin-dependent regulator of chromatin subfamily A member 4; assay: PROTAC activity at VHL/SMARCA4 in human HT-1080 cells assessed as induction of SMARCA4 degradation pretreated with MG132 followed by compound addition and measured after 6 hrs by Nano-Glo HiBiT Lytic Detection Assay; format: cell-based
[25] = target: T2, von Hippel-Lindau disease tumor suppressor/SWI/SNF-related matrix-associated actin-dependent regulator of chromatin subfamily A member 4; assay: PROTAC activity at VHL/SMARCA4 in human HT-1080 cells assessed as induction of SMARCA4 degradation pretreated with MLN4924 followed by compound addition and measured after 6 hrs by Nano-Glo HiBiT Lytic Detection Assay; format: cell-based
[26] = target: SWI/SNF-related matrix-associated actin-dependent regulator of chromatin subfamily A member 2 (Homo sapiens, UniProt P51531); assay: Binding affinity to SMARCA2 (unknown origin) incubated for 30 mins by HTRF assay
[27] = target: SWI/SNF-related matrix-associated actin-dependent regulator of chromatin subfamily A member 4 (Homo sapiens, UniProt P51532); assay: Binding affinity to SMARCA4 (unknown origin) incubated for 30 mins by HTRF assay
[28] = target: T1, von Hippel-Lindau disease tumor suppressor/SWI/SNF-related matrix-associated actin-dependent regulator of chromatin subfamily A member 2; assay: Binding affinity to flag-tagged SMARCA2/VHL (unknown origin) assessed as ternary complex formation by measuring HTRF signal incubated for 120 mins by Envision reader analysis; format: protein assay
[29] = test system: Calu-6; assay: Antiproliferative activity against human Calu-6 cells assessed as inhibition of cell growth at 1 uM incubated for 6 days by Cell Titer Glo assay; format: functional; conditions: Calu-6, 144 h, time 6 day

von Hippel-Lindau disease tumor suppressor, sequence (P40337 whole entry): as above

IC50 [1] [nM]	DC50 [2] [nM]	Emax [3] [%]	DC50 [4] [nM]	Emax [5] [%]	GI50 [7] [nM]	GI50 [8] [nM]	half-life [9] [h]	Compound	Ratio [6]	other results
1.5	0.28	97	12	78	32	> 1000	1.5	Cc1ncsc1-c1ccc([C@H](C)NC(=O)[C@@H]2C[C@@H](O)CN2C(=O)[C@@H](n2cc([C@H]3CC[C@H](CN4CCC(c5ccc6c(c5)C(C)(C)c5nc(=O)c7c(Cl)cccc7n5-6)CC4)CC3)nn2)C(C)(C)C)cc1	43	hepatic extraction ratio [10]: 0.44
25	1.3	97	94	68	34	> 1000	10	Cc1ncsc1-c1ccc([C@H](C)NC(=O)[C@@H]2C[C@@H](O)CN2C(=O)[C@@H](n2cc([C@H]3CC[C@H](CN4CCC(c5ccc6c(c5)-n5c(nc(=O)c7c(Cl)cccc75)C6(C)C)CC4)CC3)nn2)C(C)(C)C)cc1	72	Activity [11]: 83%; Activity [12]: Dose-dependent-effect; Activity [13]: Time-dependent-effect; Activity [14]: inactive; Activity [15]: inactive; Activity [16]: Active; Activity [17]: Active; Activity [18]: Active; Activity [19]: Active; Less Activity Observed; Activity [20]: Active; Less Activity Observed; Activity [21]: Active; Less Activity Observed; Activity [22]: > 95%; Activity [23]: Active; Activity [24]: inactive; Activity [25]: inactive
8.6	1.7	97	63	69	27	> 1000		Cc1ncsc1-c1ccc([C@H](C)NC(=O)[C@@H]2C[C@@H](O)CN2C(=O)[C@@H](c2cc(N3CCC(CN4CCC(c5ccc6c(c5)-n5c(nc(=O)c7c(Cl)cccc75)C6(C)C)CC4)CC3)no2)C(C)C)cc1	37	IC50 [26]: 30 nM; IC50 [27]: 63 nM; Activity [28]: Active; Smarca2-Vhl Shows 60% Greater Auc Compared To Smarca4-Vhl Was Observed; inhibition at 1 µM [29]: < 15%
